This note sets out measurements from patent US6921759B2, “Aza- and polyaza-naphthalenyl carboxamides useful as HIV integrase inhibitors” (Merck & Co., Inc., priority 2000, dated 2005).

The series can be described thus: Oral bioavailability of jet-milled v. unmilled Na salt. It counts as in vivo. The note with it: jet-milled crystals (mean particle size about 3 to 5 microns) compared with unmilled (about 20 to 25 microns); orally administered formulations. An excerpt:
The Na salt has been jet-milled to provide crystals with a mean particle size of about 3 to 5 microns (v. about 20 to 25 microns for unmilled material) for use in orally administered formulations.

Take `O=C(NCc1ccc(F)cc1)c1nc(N2CCCCS2(=O)=O)c2cccnc2c1[O-].[Na+]` [Na salt, Sodium salt of 5-(1,1-Dioxido-1,2-thiazinan-2-yl)-N-(4-fluorobenzyl)-8-hydroxy-1,6-naphthyridine-7-carboxamide]: the oral bioavailability entry was “improved oral bioavailability over the unmilled salt”.
